From patent US20200375929A1, “METHODS AND COMPOSITIONS FOR THE TREATMENT OF DISEASES ASSOCIATED WITH CANCER, INFLAMMATION, OR IMMUNE RESPONSE” (Washington University, priority 2017, published 2020)
Entries after “also recorded” stand apart in the source; their conditions may differ.

Legend:
IL6, IL12, IL1b, TNFα = test: Cytokine production in LPS-stimulated BMDMs (ELISA); format: cell-based, mouse
Method: BMDM were prepared from 6- to 12-week-old mice as described 1 and cultured in RMPI-1640 medium supplemented with 10% fetal bovine serum (FBS), 2 mM L-glutamine, and 100 U/mL penicillin-streptomycin and mouse recombinant M-CSF ([…], Peprotech). For experiments, cells were seeded at concentration 10^6 cells/mL in tissue culture plates of various formats. The cells were treated with DI (250 μM (unless stated otherwise), cat #592498, Sigma), DMF (50 μM (unless stated otherwise), cat #242926, Sigma), 3-(ethoxycarbonyl)but-3-enoic acid (3MI, 5 μM, Aris Pharmaceuticals Inc.), 4-ethoxy-2-methylene-4-oxobutanoic acid (MI, Aris Pharmaceuticals Inc.) for 12 h and activated with lipopolysaccharide (LPS; 100 ng/mL; E. coli 0111:B4, Sigma) for 1 h or as indicated. In some experiments cells were stimulated with combination of LPS (20 ng/mL) and IFN-γ (50 ng/mL; Peprotech). In some experiments cells were treated with α-tocopherol (AT, 10 μM; Sigma), MitoTEMPO (MT, 500 μM; Sigma), N-acetylcysteine (NAC, 1 mM, Sigma), ethylester of GSH (EtGSH; 1 mM, Santa Cruz) or buthionene sulfoximine (BSO, 500 μM, Sigma) alone or in combination with DI for 12 h. In some experiments BMDMs were treated with DI for 12 h and bafilomycin A (BafA, 100 nM, Sigma) or MG132 (10 μM, Selleckchem) were added 30 min before subsequent LPS stimulation.
Cytokines in cell supernatants were analyzed using DuoSet® ELISA kits according to manufacturer protocol (R&D Systems). The supernatants from BMDMs were diluted 1:4, from human blood monocytes 1:3.

BMDMs = test: Glutathione (GSH) measurement in BMDMs; format: cell-based, mouse; conditions: DI 250 μM
Method: Total GSH concentration in cells was determined by GSH/GSSH Ratio Detection Assay Kit (Abeam) according to manufacturer protocol. Briefly, 106 BMDMs were lysed in 100 μL of 0.5% NP-40 in PBS, pH 6. Samples were deproteinized using trichloroacetic acid and neutralized by addition of 1M NaHCO3 to achieve pH 4-6. Collected extracts were diluted with supplied assay buffer and directly used for GSH measurement.

[1] = test system: IκBζ target genes (Defb4, S100a7a, Lcn2, S100a9); test: IκBζ target gene expression in IL-17A-stimulated human keratinocytes (qPCR); format: cell-based; conditions: DI 12 h
Method: RNA from cultured cells was isolated using a Total RNA I kit (OMEGA). RNA from mouse ear skin was extracted using RNAeasy mini kit (Qiagen) after tissue disruption with sterile zirconium beads on a MagNA Lyser (Roche). Isolated RNA was reverse transcribed using AffinityScript Multi-Temp reverse transcriptase (Agilent Technologies) according to the manufacturer's protocol. Reactions were performed in 96-well plates using a SYBR Green PCR Master mix (Thermo Fisher Scientific) using a LightCycler® 96 or LightCycler® 480 (Roche Diagnostics). All assays were performed at least in duplicates, and reaction mixtures in 20 μL volumes (96-plate) or 10 μL volumes (384-plate) were processed under the following cycling conditions: initial 10 min denaturation at 95° C., followed by 40 cycles at 95° C. for 10 s, 60° C. for 1 min. Threshold cycle (CT) values for each sample were determined by automated threshold analysis. Expression levels of all mRNAs were normalized to reference gene Actb in BMDMs or to Rpl19 in mouse keratinocytes and tissue samples; to ACTB in human blood monocytes or RPLP0 in human keratinocytes. The relative increase in the expression level of a gene was normalized to the level of expression in unstimulated control cells in each experiment. IκBζ-dependent genes selected for analysis in macrophages were previously published. […]

Nfkbiz 3′UTR = Nfkbiz 3′UTR GFP reporter in BV2 cells (flow cytometry); format: cell-based, mouse; conditions: DI 250 μM 12 h, LPS 1 h
Method: Mouse Nfkbiz 3′UTR Lenti-reporter-GFP (#MT-m64048) vector or pLenti-UTR-GFR-Blank vector (#m014) were purchased from Applied Biological Materials. For lentiviral production transfection mixture of 1.5-mL of Opti-MEM medium (Invitrogen), 18 μg of psPAX2 (gift from Didier Trono, Addgene plasmid #12260), 13 μg of pCMV-V-SVG (gift from Bob Weinberg, Addgene plasmid #8454), 20 μg of lentiviral construct, and 105 μL of polyethylenimine (1 mg/mL; 25 kDa; linear form; Polysciences). The mixture was incubated at room temperature for 20 min and added to HEK-293T cells (ATCC) cultured in DMEM supplemented with 10% FBS, 2 mM L-glutamine and 100 U/mL penicillin-streptomycin in 150-cm2 tissue culture flask. 48 h later, virus-containing medium was filtered through […] pore-size cellulose acetate filters and used directly for BV2 transduction in the presence of polybrene (8 μg/mL, Millipore). […]
For ROS measurements, cells were treated with DI (250 μM), loaded with 10 μM CM-H2DCFDA (Invitrogen) at RT for 30 min in Hank's balanced salt solution (HBSS). After incubation, cell were rinsed with warm HBSS, harvested and directly analyzed. […] For Nfkbiz 3′UTR reporter analysis GFP signal was determined in live cells. […] Cells were acquired on CantoII or LSRII flow cytometers (Becton Dickinson), and data were analyzed with FlowJo v.9.5.2 software (Tree Star). […]

HBL1 cells line (ABC) = test: DLBCL cell viability, resazurin assay, ABC subtype; format: cell-based; conditions: HBL1, 4 days, refreshed daily; DI 125-250 μM
BMDMs / BV2 cells = test: Intracellular ROS by flow cytometry; format: cell-based, mouse; conditions: DI 250 μM
Method: For ROS measurements, cells were treated with DI (250 μM), loaded with 10 μM CM-H2DCFDA (Invitrogen) at RT for 30 min in Hank's balanced salt solution (HBSS). After incubation, cell were rinsed with warm HBSS, harvested and directly analyzed. Mean fluorescent intensity (MFI) of living cells is shown. For Nfkbiz 3′UTR reporter analysis GFP signal was determined in live cells. For analysis of cell viability cells were stained with propidium iodide (1 μg/mL) and percentage of negative cells was plotted. Cells were acquired on CantoII or LSRII flow cytometers (Becton Dickinson), and data were analyzed with FlowJo v.9.5.2 software (Tree Star). For gating strategy see e.g., FIG. 25.

C=C(CC(=O)OC)C(=O)OC [DI, dimethyl itaconate]
IL-6 production in DI-treated Atf3−/− cells compared to WT (IL6, IL12, IL1b, TNFα; Atf3−/− BMDMs, DI, LPS 24 h): significantly increased IL-6 production
LPS-induced cytokine production (IL6, IL12, IL1b, TNFα; BMDMs pretreated 12 h, then LPS): down-regulates production of IL6, IL12, and IL1b, but not TNFα
DI-mediated IL-6 inhibition in Nrf2-deficient BMDMs (IL6, IL12, IL1b, TNFα; Nrf2-deficient BMDMs, DI, LPS 4 h): did not alleviate
GSH/GSSG ratio (BMDMs): substantial drop
cellular GSH (BMDMs): substantial drop in cellular GSH; also recorded: substantial drop of cellular GSH concentration
expression of IL-17A signature / IκBζ target genes [1]: also inhibited; also recorded: downregulated
Nfkbiz 3′UTR reporter GFP expression (Nfkbiz 3′UTR): did not affect expression of reporter gene GFP; also recorded: not due to regulation of Nfkbiz 3′UTR
growth / toxicity, ABC DLBCL (HBL1 cells line (ABC)): selective toxicity towards ABC
intracellular ROS production (BMDMs / BV2 cells): increased intracellular ROS; also recorded: increase in ROS generation
